Assay results from PubChem BioAssay (NCI).
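Where inhibition never reached the appropriate level, the endpoint shown equals the highest concentration tested. Otherwise, values were interpolated linearly from a five-concentration, 48-hour dose response in 96-well plates. The concentration for full growth arrest is given as TGI.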 Where a SMILES comes first, the peptide text is derived from it. [ ]: non-standard residue; d: D form. The star is where a group is joined. Bn2Val = CC(C)[C@@H](C(=O)*)N(Cc1ccccc1)Cc1ccccc1; NMeV = CN[C@H](C(=O)O)C(C)C; X29 = COc1ccc(CN*)c(OC)c1; dNMeA = CN[C@H](C)C(=O)O

Experiments:
Assay in all cases: NCI anticancer screen, dose series, 48 h
[1] = system: HCC-2998 colon
[2] = system: RPMI-8226 leukemia
[3] = system: OVCAR-8 ovarian
[4] = system: SK-MEL-2 melanoma
[5] = system: SW-620 colon
[6] = system: HCT-15 colon
[7] = system: SNB-19 CNS
[8] = system: A498 renal
[9] = system: MDA-MB-435
[10] = system: SR leukemia

Compound	TGI [1]	TGI [2]	TGI [3]	TGI [4]	TGI [5]	TGI [6]	TGI [7]	TGI [8]	TGI [9]	TGI [10]
CC1(C)C2CCC3(OCCO3)C1C(O)C2 (centres undefined)	> 100 µM	> 100 µM	> 100 µM	> 100 µM	> 100 µM	> 100 µM	> 100 µM	> 100 µM	–	–
CCOC(=O)c1c(C)nc2c(c1-c1cn(-c3ccccc3)nc1-c1ccccc1)C(=O)c1ccccc1-2	–	–	> 100 µM	> 100 µM	> 100 µM	> 100 µM	> 100 µM	> 100 µM	> 100 µM	–
COc1ccc(C2OCCN2C)cc1 (centres undefined)	–	> 100 µM	> 100 µM	> 100 µM	> 100 µM	> 100 µM	> 100 µM	> 100 µM	> 100 µM	> 100 µM
CC(=O)OC12c3ccccc3C(c3ccccc31)C1C(=O)N(c3ccccn3)C(=O)C12 (centres undefined)	> 100 µM	> 100 µM	> 100 µM	–	> 100 µM	> 100 µM	> 100 µM	–	–	–
COC(=O)CC(C(C(=O)OCc1ccccc1)C(C)O)N1C(=O)OC(c2ccccc2)C1c1ccccc1 (centres undefined)	> 100 µM	> 100 µM	> 100 µM	> 100 µM	> 100 µM	> 100 µM	> 100 µM	> 100 µM	–	> 100 µM
CS(=O)(=O)c1nc(-c2cc3c(c(S(C)(=O)=O)n2)CCC3)cc2c1CCCC2	> 100 µM	> 100 µM	57.9 µM	59.3 µM	> 100 µM	> 100 µM	> 100 µM	–	> 100 µM	–
Oc1ccccc1C1C=C(c2ccccc2)NC(N2CCCCC2)=C1c1nc2ccccc2[nH]1 (centres undefined)	10.8 µM	49 µM	30.9 µM	–	30.5 µM	35.9 µM	28.7 µM	–	29.6 µM	35.3 µM
CC(=O)NC(CCCCN)C(=O)NCc1ccccc1 (centres undefined)	> 100 µM	> 100 µM	> 100 µM	> 100 µM	> 100 µM	> 100 µM	> 100 µM	> 100 µM	–	–
Cc1ccc(-c2cc(O)c3nc4ccccc4n3c2)cc1	–	> 100 µM	> 100 µM	–	> 100 µM	> 100 µM	> 100 µM	> 100 µM	> 100 µM	> 100 µM
O=CC(O)C(O)C(O)C1CNC(=S)O1 (centres undefined)	–	> 100 µM	> 100 µM	> 100 µM	> 100 µM	> 100 µM	–	> 100 µM	> 100 µM	> 100 µM
COc1ccc(CNC(=O)[C@@H]2CCCN2C(=O)[C@@H](C)N(C)C(=O)[C@H](C(C)C)N(C)C(=O)[C@@H](NC(=O)[C@H](C(C)C)N(Cc2ccccc2)Cc2ccccc2)C(C)C)c(OC)c1 (Bn2Val-V[NMeV][dNMeA]P-X29)	8.39 µM	17.2 µM	57.6 µM	3.45 µM	20.6 µM	13.5 µM	22.8 µM	8.69 µM	6.61 µM	–
CC1(C)C(CCO)CC1n1ccc(=O)[nH]c1=O (centres undefined)	> 100 µM	–	–	> 100 µM	> 100 µM	> 100 µM	> 100 µM	> 100 µM	> 100 µM	–
CN1N=C(c2ccncc2)OC1c1cccc(C(F)(F)F)c1 (centres undefined)	> 100 µM	> 100 µM	> 100 µM	> 100 µM	> 100 µM	> 100 µM	> 100 µM	> 100 µM	> 100 µM	–
COc1cccc(/C(Cl)=C(\C=O)c2cccc(OC)c2)c1	30.5 µM	45.1 µM	30.5 µM	32.7 µM	19.5 µM	20.1 µM	38.2 µM	36.3 µM	–	39.5 µM
CCOC(=O)C(C)Sc1nnc(COc2ccccc2OC)n1-c1ccccc1 (centres undefined)	> 100 µM	59.9 µM	> 100 µM	> 100 µM	47 µM	30.6 µM	> 100 µM	> 100 µM	–	–
CN1CN(c2ccccc2)C2(CCN(CCCCCCF)CC2)C1=O	–	> 100 µM	> 100 µM	–	> 100 µM	> 100 µM	> 100 µM	–	> 100 µM	> 100 µM
NC(Cc1c[nH]c2cc([N+](=O)[O-])ccc12)C(=O)O (centres undefined)	–	> 100 µM	> 100 µM	> 100 µM	> 100 µM	> 100 µM	> 100 µM	> 100 µM	> 100 µM	> 100 µM
O=c1c2ccccc2nc(-c2ccccc2)n1NC(=S)Nc1ccc(Cl)cc1	–	> 100 µM	> 100 µM	> 100 µM	> 100 µM	> 100 µM	–	> 100 µM	–	> 100 µM
Cc1cc(NC(=O)C2C3C=CC(O3)C2C(=O)O)no1 (centres undefined)	> 100 µM	37.4 µM	32.6 µM	> 100 µM	5.92 µM	37.4 µM	> 100 µM	> 100 µM	–	42.8 µM
Cc1cccc2c1c1ccc3c(c1n2C)C(=O)C=CC3=O	32.8 µM	13.2 µM	32.1 µM	33.6 µM	4.33 µM	10.5 µM	32.3 µM	44.5 µM	–	4.45 µM
CC1(C)CC2(C)CC1CC2(O)c1ccccc1 (centres undefined)	–	–	> 100 µM	–	> 100 µM	–	> 100 µM	> 100 µM	> 100 µM	> 100 µM
CC(=O)OC1C2CCC3C(C)(O)C4CC(O)C(C)(C)C4(O)C(O)CC13CC2(C)O (centres undefined)	> 100 µM	> 100 µM	> 100 µM	> 100 µM	–	> 100 µM	> 100 µM	> 100 µM	–	> 100 µM
Cc1cc(C)nc(/C(=N\NC(N)=O)C(=O)Nc2nc3ccc(C)cc3s2)c1	> 100 µM	> 69.6 µM	> 100 µM	> 100 µM	> 100 µM	> 100 µM	> 100 µM	> 100 µM	–	40.7 µM
COC(=O)CCc1c(Cc2ccc[nH]2)[nH]c(C(=O)OCc2ccccc2)c1C	–	76.5 µM	52.5 µM	33.7 µM	45.7 µM	36.3 µM	85.8 µM	62.8 µM	32.6 µM	66.5 µM
